Measurements as given in patent US20260258083A1, “T Cell Engager Masking Molecules” (AMGEN INC., priority 2023, published 2026).
Values belong to the substance of their own block, whether it stands above or below them. Where no end group is shown, it is not given here. [ ]: non-standard residue; d: D form. pGlu = O=C1CC[C@@H](C(=O)O)N1

Tests used:
[1] = system: FLT3×CD3 TCE (SEQ ID NO: 93); experiment: Association kinetics by KinExA (Table 5); type: binding; conditions: KinExA, FLT3×CD3 TCE
Procedure: • 1. Preparation of NHS-activated sepharose fast-flow beads: • 2. Fast flow sepharose suspension in 100% IPA, washed twice with milliQ H20, mild centrifugation to pool beads in between wash steps. • 3. Equilibrated in 0.15 M NaBO3, pH=8.5 buffer • 4. Added 80 mM PDEA to activate the resin for thiol exchange, 10 mins, r.t. • 5. Equilibrated resin with Hepes Buffered Saline-P (0.01 M HEPES pH 7.4, 0.15 M NaCl, 0.005% v/v Surfactant P2), pH 7.4 binding buffer • 6. Added 30 μg/mL of binding peptide, […] (SEQ ID NO; 297) or pGlu-[…] (SEQ ID NO: 300), reaction for 1 hr to functionalize resin. • 7. Quench with 10 mM L-Cys for 1 hour. • 8. Constant Binding Partner was FLT3×CD3 TCE (SEQ ID NO: 93), MW 105720, 3.2 mg/mL 31.21 uM was diluted to 333 pM and the pGlu-[…] peptide or pGlu-[…]-PEG (Pep-PEG v2) were titrated from 1 uM or 400 nM down to 2.3 pM concentrations relative to effective peptide molarity.
Association Kinetics by KinExA

[2] = 2nd mouse PK study, IV bolus (Example 3); type: in vivo; conditions: BL/6 mice, IV bolus 5 mg/kg, plasma
Procedure: Example 3: 2nd Mouse PK Study
A second PK study was conducted in BL/6 mice to evaluate the plasma pharmacokinetics of the masking peptide in 8-arm (octavalent), 40 kDa PEG form. Both CD3ε PepPOL, v1 (40 kDa) and CD3ε PepPOL, v1 (20 kDa) (see Table 6 for sequences) were administered to mice by IV bolus at 5 mg/kg dose level and the results are shown in Fig. XX. […] The terminal elimination half-lives were estimated to be between 90 min and 120 min for the 20 kDa or 40 kDa CD3ε PepPOL, v1 forms, respectively.

muCD19 TCE = muCD19 TCE + CD3ε PepPOL, v1 co-administration pilot study, cytokines and CD19+ B cell depletion (Example 6); type: in vivo, huCD3ε TCR KI mice; conditions: ≥1000× molar overage with 100 μg/kg muCD19 TCE
Procedure: Example 6: Study muCD19 TCE+CD3ε PepPOL, v1 Co-Administration in huCD3ε TCR KI Mouse Model. 100 ug/kg IV Dose Murine Anti-muCD19 TCE Investigated >2300X
An initial pilot study in huCD3ε TCR KI mice was conducted to establish the desired PD effect with CD3ε PepPol v1. Here, CD3ε PepPol, v1 was co-administered at ≥1000× molar overage (peptide:TCE) with 100 μg/kg muCD19 TCE.

[3] = Mouse pharmacokinetic study, IV (Example 2); conditions: BL/6 mice, IV, 0.82 or 8.2 mg/kg, plasma total intact peptide
Procedure: Example 2: Mouse Pharmacokinetic Study to Evaluate In Vivo PK
The 4-arm 20 kDa PepPOL conjugate was dosed by IV administration to BL/6 mice at 0.82 or 8.2 mg/kg dose levels. […] The PK profiles for each peptide were evaluated by quantifying plasma concentrations of total intact peptide material over time (see methods).

[4] = C57BL/6 mice, single dose, non-linear one-phase decay fitting
Text: Example 4: TCE Masking Molecule in PK Mouse Study
To further understand the in vivo behavior of the pyro-Glu containing dimeric p-[…]

CD20 TCE = CD20 TCE + CD3ε PepPOL, v2 PK/PD study 157130 (Example 10); type: in vivo, cynomolgus monkeys
Procedure: Example 10: Cynomolgus Study CD20 TCE (0.010 mg/kg)+CD3ε PepPOL, v2 (+25× (0.016 mg/kg), +250× (0.16 mg/kg) Co-Administration in Cynomolgus Monkeys
PK/PD study 157130 was an exploratory dose-ranging study conducted in cynomolgus monkeys aimed to establish activity of a ‘high affinity’ CD3ε PepPOL, v2 when co-administered with CD20 TCE. Primary study endpoints included: cytokine release, CD20+ B cell lysis, T cell activation, and clinical chemistry end points typically associated with CRS (e.g., CRP). CD20 TCE was dosed at 10 ug/kg alone, or in combination with CD3ε PepPOL, v2 at 0.016 mg/kg (25× molar excess CD3ε peptide), or 0.160 mg/kg (250× molar excess CD3ε peptide). A summary of the results is described below.
Serum cytokines MCP-1, IL-6, TNFα, IFNγ, and IL-2 were assessed by multiplex sandwich immunoassay at multiple time points from 0-168 hours post dose.

FLT3xCD3 TCE = experiment: SPR solution assay of competition binding with TCE
Sequence of FLT3xCD3 TCE (as listed by the source): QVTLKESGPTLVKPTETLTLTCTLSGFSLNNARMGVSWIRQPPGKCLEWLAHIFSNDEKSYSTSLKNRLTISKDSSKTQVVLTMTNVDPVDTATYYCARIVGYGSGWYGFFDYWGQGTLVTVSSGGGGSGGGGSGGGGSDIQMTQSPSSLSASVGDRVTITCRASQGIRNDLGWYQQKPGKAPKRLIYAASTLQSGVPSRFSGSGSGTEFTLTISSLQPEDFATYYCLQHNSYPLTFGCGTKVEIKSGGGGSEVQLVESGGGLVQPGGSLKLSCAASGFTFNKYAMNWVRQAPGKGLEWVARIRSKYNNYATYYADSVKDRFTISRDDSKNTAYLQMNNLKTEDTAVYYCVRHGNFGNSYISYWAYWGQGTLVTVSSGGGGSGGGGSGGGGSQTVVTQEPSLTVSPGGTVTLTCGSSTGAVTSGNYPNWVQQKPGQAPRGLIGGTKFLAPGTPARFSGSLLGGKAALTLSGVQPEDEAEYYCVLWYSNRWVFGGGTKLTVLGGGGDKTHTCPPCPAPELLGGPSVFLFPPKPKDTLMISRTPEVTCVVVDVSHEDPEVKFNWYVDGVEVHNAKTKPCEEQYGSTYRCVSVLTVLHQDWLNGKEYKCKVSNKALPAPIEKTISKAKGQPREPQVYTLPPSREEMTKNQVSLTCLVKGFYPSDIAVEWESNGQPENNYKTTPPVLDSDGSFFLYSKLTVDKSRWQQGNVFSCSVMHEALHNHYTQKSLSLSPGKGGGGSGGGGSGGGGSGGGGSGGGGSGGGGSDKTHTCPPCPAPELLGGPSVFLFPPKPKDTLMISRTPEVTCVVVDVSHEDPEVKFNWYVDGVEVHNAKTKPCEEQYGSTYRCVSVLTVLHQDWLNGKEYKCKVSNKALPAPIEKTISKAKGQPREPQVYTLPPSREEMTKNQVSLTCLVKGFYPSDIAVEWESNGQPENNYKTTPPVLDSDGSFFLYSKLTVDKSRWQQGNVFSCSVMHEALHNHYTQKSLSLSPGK
Procedure: (§1) SPR Solution Assay of Competition Binding with TCE
(§2) As it can be derived from table 6,
(§3) A high affinity SPR ‘capture’ surface was first constructed to facilitate the SPR analysis of pre-equilibrated peptide analyte+TCE solutions. Briefly, a Cytiva CM5 chip was functionalized with PDEA (2-(2-pyridinyldithio)ethaneamine) under standard EDC/NHS coupling conditions where the PDEA is dissolved to 20 mM 2-(2-pyridinyldithio)ethaneamine and 1 M NaCl in 0.1 M sodium acetate pH 4.3, 6 peptide including p[…] (ID 14974, SEQ ID NO 304) were tested:
(§4) Respective peptide was dissolved to between 50 and 100-ug/mL for injection over the activated CM5 surface in PBST, pH 6.5, and coupling times were optimized to yield the desired surface density (~300RU).
(§5) For the binding assessment, Individual binding isotherms were constructed by titrating the respective peptide of interest into a fixed concentration of TCE-containing solution in PBST. At least 4 hrs equilibration time were allotted (r.t.) prior to analysis by SPR. For the analysis, a calibration curve was first constructed of the TCE analyte being assessed. For analysis of the TCE+peptide mixtures, the samples were injected (10 uL/min) over the previously prepared capture surface for 90 seconds, where the SPR response (RU) was recorded at the end of the injection and referenced to the previously prepared standard curve to derive an estimate of the ‘free’ TCE concentration in the presence of peptide analyte. The ‘free’ TCE concentration measured was plotted as a function of log peptide concentration and fit using non-linear regression analysis to a 4 parameter logistic function to derive an IC50.

STEAP1xCD3 TCE = experiment: SPR solution assay of competition binding with TCE
Procedure: as §1, §2, §3, §4, §5

[5] = system: CDH3-CD3-MSLN-CD3 TCE (SEQ ID NO 255); experiment: SPR assay of immobilized peptides binding with TCE
Sequence of CDH3-CD3-MSLN-CD3 TCE (SEQ ID NO 255) (as listed by the source): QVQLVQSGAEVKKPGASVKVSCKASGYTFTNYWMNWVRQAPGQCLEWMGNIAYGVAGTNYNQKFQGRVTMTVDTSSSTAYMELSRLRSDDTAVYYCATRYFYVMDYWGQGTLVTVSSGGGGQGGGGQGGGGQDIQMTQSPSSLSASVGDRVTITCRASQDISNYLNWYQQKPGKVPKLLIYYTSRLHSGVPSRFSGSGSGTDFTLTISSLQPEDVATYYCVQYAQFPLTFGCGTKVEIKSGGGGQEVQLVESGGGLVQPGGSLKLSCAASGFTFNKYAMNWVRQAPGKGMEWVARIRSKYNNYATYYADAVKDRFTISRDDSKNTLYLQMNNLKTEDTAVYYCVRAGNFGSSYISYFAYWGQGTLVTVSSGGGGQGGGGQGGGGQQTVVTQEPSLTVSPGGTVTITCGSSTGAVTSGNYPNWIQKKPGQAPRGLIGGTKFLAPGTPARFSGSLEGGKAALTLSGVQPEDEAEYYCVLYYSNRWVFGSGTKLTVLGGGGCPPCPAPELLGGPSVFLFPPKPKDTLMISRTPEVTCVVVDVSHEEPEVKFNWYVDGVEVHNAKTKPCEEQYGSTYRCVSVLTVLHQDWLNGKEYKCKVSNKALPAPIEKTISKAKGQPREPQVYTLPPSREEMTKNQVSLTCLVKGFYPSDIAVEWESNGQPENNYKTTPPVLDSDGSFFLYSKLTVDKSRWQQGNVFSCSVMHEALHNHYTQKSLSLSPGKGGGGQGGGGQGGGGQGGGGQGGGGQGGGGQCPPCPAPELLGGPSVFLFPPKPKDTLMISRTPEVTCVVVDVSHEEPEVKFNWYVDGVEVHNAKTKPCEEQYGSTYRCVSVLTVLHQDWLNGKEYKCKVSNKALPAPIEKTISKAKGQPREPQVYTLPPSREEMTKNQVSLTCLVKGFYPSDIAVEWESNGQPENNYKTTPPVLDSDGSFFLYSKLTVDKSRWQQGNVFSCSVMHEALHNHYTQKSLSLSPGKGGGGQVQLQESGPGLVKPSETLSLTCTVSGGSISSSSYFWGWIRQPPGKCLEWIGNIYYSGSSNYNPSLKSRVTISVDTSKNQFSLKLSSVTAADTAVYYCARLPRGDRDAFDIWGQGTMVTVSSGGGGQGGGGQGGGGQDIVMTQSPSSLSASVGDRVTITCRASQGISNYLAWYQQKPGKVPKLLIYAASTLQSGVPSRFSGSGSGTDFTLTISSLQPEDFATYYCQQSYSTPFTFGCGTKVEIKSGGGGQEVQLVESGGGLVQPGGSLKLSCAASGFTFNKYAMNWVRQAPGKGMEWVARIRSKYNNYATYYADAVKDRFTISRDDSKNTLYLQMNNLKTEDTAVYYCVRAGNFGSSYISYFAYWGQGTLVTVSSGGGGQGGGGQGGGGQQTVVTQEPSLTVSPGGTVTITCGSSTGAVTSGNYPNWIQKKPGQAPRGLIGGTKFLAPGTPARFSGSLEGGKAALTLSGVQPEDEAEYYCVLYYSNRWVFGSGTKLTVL
Procedure: (§6) Example 14: SPR Assay of Immobilized Peptides Binding with TCE
(§7) A cytiva CM5 chip was first functionalized with PDEA (2-(2pyridinyldithio)ethaneamine) under standard ((1-ethyl-3-(3-dimethylaminopropyl)carbodiimide)/(N-hydroxysuccinimide) EDC/NHS coupling conditions where the PDEA is dissolved to 20 mM and 1 M NaCl in 0.1 M sodium acetate pH 4.3. Binding peptides were dissolved to 50- or 100-ug/mL respectively in PBST, pH 6.5, and coupling times were optimized to yield the desired surface density.

[6] = system: CLDN6xCD3 TCE SEQ ID NO 340; experiment: SPR assay of immobilized peptides binding with TCE; conditions: immobilized peptide, Kinetic 1:1 Binding
Procedure: as §6, §7

[7] = biological target: DLL3xCD3 TCE SEQ ID NO 104; experiment: SPR assay of immobilized peptides binding with TCE; conditions: immobilized peptide, Kinetic 1:1 Binding
Sequence of DLL3xCD3 TCE SEQ ID NO 104 (as listed by the source): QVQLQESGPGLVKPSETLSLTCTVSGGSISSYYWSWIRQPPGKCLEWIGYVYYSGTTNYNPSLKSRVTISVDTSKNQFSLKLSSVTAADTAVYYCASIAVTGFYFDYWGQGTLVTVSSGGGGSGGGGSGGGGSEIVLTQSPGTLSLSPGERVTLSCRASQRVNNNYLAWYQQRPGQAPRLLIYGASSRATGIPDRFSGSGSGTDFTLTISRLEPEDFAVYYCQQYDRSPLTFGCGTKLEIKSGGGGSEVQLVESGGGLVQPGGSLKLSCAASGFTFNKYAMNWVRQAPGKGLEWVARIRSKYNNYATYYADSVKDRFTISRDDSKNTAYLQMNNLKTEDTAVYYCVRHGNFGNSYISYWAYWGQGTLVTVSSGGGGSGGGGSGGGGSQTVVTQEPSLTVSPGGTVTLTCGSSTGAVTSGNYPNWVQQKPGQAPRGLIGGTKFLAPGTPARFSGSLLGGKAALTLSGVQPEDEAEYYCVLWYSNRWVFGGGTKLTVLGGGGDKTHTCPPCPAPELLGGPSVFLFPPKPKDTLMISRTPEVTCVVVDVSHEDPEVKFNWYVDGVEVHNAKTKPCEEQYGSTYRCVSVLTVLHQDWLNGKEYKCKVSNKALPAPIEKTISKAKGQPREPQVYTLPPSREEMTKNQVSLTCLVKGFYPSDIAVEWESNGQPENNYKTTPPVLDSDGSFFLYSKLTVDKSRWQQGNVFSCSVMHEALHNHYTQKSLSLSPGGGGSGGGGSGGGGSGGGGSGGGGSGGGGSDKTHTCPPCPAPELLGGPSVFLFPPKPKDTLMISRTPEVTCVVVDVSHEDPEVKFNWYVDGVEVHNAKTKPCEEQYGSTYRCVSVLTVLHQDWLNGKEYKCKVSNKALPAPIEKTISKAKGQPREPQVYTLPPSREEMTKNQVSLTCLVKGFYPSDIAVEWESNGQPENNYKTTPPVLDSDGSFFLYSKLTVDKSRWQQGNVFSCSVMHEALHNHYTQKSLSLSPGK
Procedure: as §6, §7

[8] = biological target: FLT3xCD3 TCE SEQ ID NO 93; experiment: SPR assay of immobilized peptides binding with TCE; conditions: immobilized peptide, Kinetic 1:1 Binding
Procedure: as §6, §7

[9] = biological target: Steap 1xCD3 TCE SEQ ID NO 373 + 374 + 375; experiment: SPR assay of immobilized peptides binding with TCE; conditions: immobilized peptide, Kinetic 1:1 Binding
Sequence of Steap 1xCD3 TCE SEQ ID NO 373 + 374 + 375 (as listed by the source): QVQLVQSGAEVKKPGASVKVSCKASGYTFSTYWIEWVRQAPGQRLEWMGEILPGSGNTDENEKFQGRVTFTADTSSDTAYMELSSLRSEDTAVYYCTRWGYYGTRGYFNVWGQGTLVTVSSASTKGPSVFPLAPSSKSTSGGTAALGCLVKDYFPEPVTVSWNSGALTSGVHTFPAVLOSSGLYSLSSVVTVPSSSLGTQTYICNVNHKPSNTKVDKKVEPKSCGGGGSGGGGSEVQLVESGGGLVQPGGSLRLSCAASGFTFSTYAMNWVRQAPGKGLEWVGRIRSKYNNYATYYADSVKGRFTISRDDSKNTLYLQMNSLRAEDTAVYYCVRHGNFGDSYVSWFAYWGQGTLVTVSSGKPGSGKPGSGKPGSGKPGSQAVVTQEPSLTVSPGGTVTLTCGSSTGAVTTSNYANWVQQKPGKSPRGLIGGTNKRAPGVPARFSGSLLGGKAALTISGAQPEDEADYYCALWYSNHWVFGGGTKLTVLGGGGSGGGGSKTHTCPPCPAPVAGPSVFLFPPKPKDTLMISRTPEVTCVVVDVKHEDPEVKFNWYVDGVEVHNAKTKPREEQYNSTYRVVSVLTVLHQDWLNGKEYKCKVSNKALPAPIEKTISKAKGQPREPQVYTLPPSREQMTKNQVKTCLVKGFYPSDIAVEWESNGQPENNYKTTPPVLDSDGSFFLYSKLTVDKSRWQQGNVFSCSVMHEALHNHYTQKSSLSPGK
Sequence of Steap 1xCD3 TCE SEQ ID NO 373 + 374 + 375 (as listed by the source partner): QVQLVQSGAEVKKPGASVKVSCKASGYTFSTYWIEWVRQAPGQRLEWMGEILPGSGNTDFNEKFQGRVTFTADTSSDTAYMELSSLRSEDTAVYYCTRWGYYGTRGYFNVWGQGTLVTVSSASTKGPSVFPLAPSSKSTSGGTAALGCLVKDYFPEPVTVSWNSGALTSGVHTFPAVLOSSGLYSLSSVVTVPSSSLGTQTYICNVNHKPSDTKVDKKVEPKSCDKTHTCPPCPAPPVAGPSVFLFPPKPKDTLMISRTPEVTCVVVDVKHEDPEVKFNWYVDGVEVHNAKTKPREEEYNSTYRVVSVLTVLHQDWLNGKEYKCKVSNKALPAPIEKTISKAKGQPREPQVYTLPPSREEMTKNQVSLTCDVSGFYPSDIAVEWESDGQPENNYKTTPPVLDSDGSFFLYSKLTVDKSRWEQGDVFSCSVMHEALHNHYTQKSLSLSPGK
Sequence of Steap 1xCD3 TCE SEQ ID NO 373 + 374 + 375 (as listed by the source partner): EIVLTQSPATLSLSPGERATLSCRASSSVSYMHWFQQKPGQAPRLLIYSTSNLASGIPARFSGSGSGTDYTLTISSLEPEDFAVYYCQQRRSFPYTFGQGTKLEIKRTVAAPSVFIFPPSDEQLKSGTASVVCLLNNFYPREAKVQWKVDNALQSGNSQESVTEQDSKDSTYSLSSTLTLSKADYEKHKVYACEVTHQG
Procedure: as §6, §7

Substance: (QDGNEEMGKGMEENGDQC)4 - PEG(20 kDa) (also: four copies conjugated to PEG 20 kDa)
koff [1]: 0.0047 s⁻¹
terminal elimination half-lives [2]: ~90 min
PD effect with respect to CD19+ B cell depletion (muCD19 TCE): retained a greater degree of PD effect
impact on cytokine reduction (muCD19 TCE): cytokine reduction can be seen
terminal elimination half-life [3]: ~1.47 h

Substance: (pE-DGNEEMGKGMEENGDQC)4-PEG(20 kDa) ([pGlu]DGNEEMGKGMEENGDQC; also: four copies attached to PEG(20 kDa), site not given here)
koff [1]: 0.00195 s⁻¹
elimination half-lives [4]: ~102 min
IL-6 serum concentration (CD20 TCE; 0.010 mg/kg CD20 TCE + 0.016 mg/kg (25×)): moderate increase in IL-6 serum concentration for n=1 of 2 animals
IL-6 stimulation (CD20 TCE; 0.010 mg/kg CD20 TCE + 0.16 mg/kg (250×)): No IL-6 stimulation was observed
difference in CD20 TCE cytolytic activity vs CD20 TCE control group (CD20 TCE; 0.010 mg/kg CD20 TCE IV): No apparent difference
circulating CD20+ B lymphocytes (CD20 TCE; 0.010 mg/kg CD20 TCE IV alone or in combination): complete elimination
reduction in peak serum MCP-1 (CD20 TCE; 4 hr, 250× combo group, 0.010 mg/kg CD20 TCE IV): ~ 98%
TNF-α and IFN-γ (CD20 TCE; CD20 TCE + 0.160 mg/kg, all time points, both animals): not detected above the assay LLOQ
IL-2 response (CD20 TCE; any group): No detectable IL-2 response
T cell activation, early (CD69+) and late (CD25+) markers by flow cytometry (CD20 TCE; co-administration with 0.010 mg/kg CD20 TCE, 20 day study): pronounced effect on T cell activation
C-reactive protein (CRP) (CD20 TCE; combo groups relative to CD20 TCE monotherapy 0.010 mg/kg IV): dose-dependent decrease in CRP

IC50 (FLT3xCD3 TCE; solution competition): 14.7 nM
IC50 (STEAP1xCD3 TCE): 28.6 nM
fast component for the off-rate ([5]; bivalent analyte model): 0.236 s⁻¹
fast component of the on-rate ([5]; bivalent analyte model): 1.29e+06 M⁻¹ s⁻¹
Kd ([5]; immobilized peptide, SS Affinity model): 72.5 nM
ka [6]: 3.81e+06 M⁻¹ s⁻¹
kd [6]: 0.0624 s⁻¹
Kd [7]: 20.5 nM
ka [7]: 2.64e+06 M⁻¹ s⁻¹
kd [7]: 0.0542 s⁻¹
Kd [8]: 7.3 nM
ka [8]: 4.04e+06 M⁻¹ s⁻¹
kd [8]: 0.0295 s⁻¹
Kd [9]: 27.4 nM
ka [9]: 3.04e+06 M⁻¹ s⁻¹
kd [9]: 0.0834 s⁻¹
Substance: pGlu-DGEEELKGC (N-terminal pyroglutamate; VARIANT 1 Pyroglutamic acid)

reduction in IC50 (FIG. 19) (FLT3xCD3 TCE; FLT3×CD3 TCE and STEAP1×CD3 TCE): negative example
ka [7]: 4.81e+06 M⁻¹ s⁻¹
kd [7]: 0.0713 s⁻¹
ka [8]: 3.21e+06 M⁻¹ s⁻¹
kd [8]: 0.0285 s⁻¹
ka [9]: 2.09e+06 M⁻¹ s⁻¹
kd [9]: 0.0734 s⁻¹
Substance: pGlu-DGTEELKGC ([pGlu]DGTEELKGC)
